The structures appear in SMILES notation.

The target in the experiment is T1, huDHOase (Homo sapiens, UniProt P27708).
T1 construct: huDHOase1456-1846-NdeI-N; made in house; host or cells: E. coli BL21(DE3)
T1 sequence (P27708 1456-1846): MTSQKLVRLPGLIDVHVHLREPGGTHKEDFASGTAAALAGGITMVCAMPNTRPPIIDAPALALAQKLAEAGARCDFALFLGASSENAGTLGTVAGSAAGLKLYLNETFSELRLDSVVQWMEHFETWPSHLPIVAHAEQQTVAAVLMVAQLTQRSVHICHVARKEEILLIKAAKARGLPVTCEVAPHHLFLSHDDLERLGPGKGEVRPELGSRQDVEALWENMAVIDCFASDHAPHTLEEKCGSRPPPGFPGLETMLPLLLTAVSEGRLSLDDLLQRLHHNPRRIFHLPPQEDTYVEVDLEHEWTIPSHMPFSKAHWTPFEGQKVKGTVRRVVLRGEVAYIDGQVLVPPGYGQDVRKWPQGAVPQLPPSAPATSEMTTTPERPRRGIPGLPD
Kind of experiment: fluorescence quenching binding assay. The procedure:
Figure 7 The data used to calculate the Kd values of various DHOases. (A) The fluorescence emission spectra of ScDHOase with PLU of different concentrations (0–200 μM; 0, 10, 20, 50, 75, 100, 125, 150, 175, and 200 μM). The decrease in intrinsic fluorescence of protein was measured at 324 nm upon excitation at 280 nm with a spectrofluorometer. […] (B) The fluorescence emission spectra of huDHOase with PLU of different concentrations (0–200 μM). (C) The fluorescence emission spectra of StDHOase with PLU of different concentrations. (D) The fluorescence emission spectra of ScDHOase–R18A with PLU of different concentrations. (E) The fluorescence emission spectra of ScDHOase–T106A with PLU of different concentrations. […] (F) An aliquot amount of PLU was added to the enzyme solution to determine the Kd. The Kd was obtained by the following equation: ΔF = ΔFmax − Kd(ΔF/[PLU]). Data points are an average of 2–3 determinations within a 10% error.
The decrease in the intrinsic fluorescence of DHOase was measured with a spectrofluorometer (Hitachi F-2700; Hitachi High-Technologies, Japan). The Kd was obtained using the following equation: ΔF = ΔFmax − Kd(ΔF/[PLU]).
The Kd value of the purified DHOase was determined using the fluorescence quenching method as previously described for DHOase, DHPase, and DnaB helicase. Briefly, an aliquot of the compound was added into the solution containing DHOase (1 μM) and 50 mM HEPES at pH 7.0. The decrease in the intrinsic fluorescence of DHOase was measured at 324 nm upon excitation at 280 nm and 25 °C with a spectrofluorometer (Hitachi F-2700; Hitachi High-Technologies, Japan). The Kd was obtained using the following equation: ΔF = ΔFmax − Kd(ΔF/[PLU]).

For `CC1=CC(=O)c2c(O)cccc2C1=O` [PLU, plumbagin], where the note is “PLU 0–200 μM”, the “quenching of huDHOase” value is 75.6%, the “λem shift of huDHOase” value came out at 1.5 nm and the “λmax of huDHOase emission” value was “from 340 to 338.5”. Moreover, the Kd (as a rule, the constant that tells how readily two partners part at equilibrium) (fluorescence quenching titration curve) is 151 ± 4.1 µM.

Values taken from PMC8267945, “Plumbagin, a Natural Product with Potent Anticancer Activities, Binds to and Inhibits Dihydroorotase, a Key Enzyme in Pyrimidine Biosynthesis” (International Journal of Molecular Sciences, 2021).
